# Patent US10738051B2, “β-lactamase inhibitors” (priority 2016, dated 2020)
# Key:
# [1] = target: TEM-1 (Class A) β-lactamase (Escherichia coli, UniProt P62593); assay: In vitro enzymatic assay (Nitrocefin); format: biochemical; conditions: Nitrocefin 0.1 mM, 1 × PBS pH 7.4, 0.1 mg/mL BSA, read-out: IC50, inhibitory activity on β-lactamase
# Experimental: (§1) 2) Prepare buffer solution A (1×PBS, pH 7.4, 0.1 mg/mL BSA) for enzymatic assay;
# (§2) 3) The compound mother liquor was 4-fold serial diluted for 11 times with DMSO in a 96-well tip-bottom plate, which was used as a working solution. A 96-well flat bottom plate was used as a test plate, the corresponding reaction buffer was previously added to each well, followed by addition of a corresponding volume of the working solution (100 μM-0.095 nM and 0 nM). Wherein, EDTA-Na2 was used as a control for the NDM-1 test at a concentration of 20 mM;
# (§3) 4) adding the corresponding β-lactamase, and the test plate was incubated at 37° C. for 5 minutes;
# (§4) 5) Adding 5 μL Nitrocefin (the final reaction volume was 100 μL), the absorbance OD490 of the reaction solution in the plate was measured by a microplate reader and the result was recorded, the absorbance was measured every minute over 30 minutes;
# (§5) 6) The microplate reader could give a curve of OD490 over time. The slope of the curve (Abs2−Abs1)/(T2−T1) was calculated by taking two data points Abs1 and Abs2 within the linear range of the curve.
# (§6) 7) The relative inhibition rate was calculated as follows: Slope (EC) was calculated under the condition of absence of an inhibitor, and Slop(S) was calculated under the condition of an inhibitor at a certain concentration.
# (§7) The relative inhibition rate and the corresponding concentration of the inhibitor were used to calculate the IC50 value of the inhibitor on β-lactamase. In this experiment, the IC50 was calculated using the formula of GraphPad Prism 5.0, log(inhibitor) vs. normalized response-Variable slope.
# [2] = target: CTX-M-44 (Class C) β-lactamase (Escherichia coli, UniProt Q47066); assay: In vitro enzymatic assay (Nitrocefin); format: biochemical
# Experimental: as §1, §2, §3, §4, §5, §6, §7
# [3] = target: AmpC-PA (Class C) β-lactamase (Pseudomonas aeruginosa, UniProt P24735); assay: In vitro enzymatic assay (Nitrocefin); format: biochemical
# Experimental: as §1, §2, §3, §4, §5, §6, §7
# [4] = target: OXA-9 (Class D) β-lactamase (Klebsiella pneumoniae, UniProt P0A3M3); assay: In vitro enzymatic assay (Nitrocefin); format: biochemical
# Experimental: as §1, §2, §3, §4, §5, §6, §7
# [5] = target: OXA-2 (Class D) β-lactamase (Escherichia coli, UniProt P0A1V9); assay: In vitro enzymatic assay (Nitrocefin); format: biochemical
# Experimental: as §1, §2, §3, §4, §5, §6, §7
# [6] = target: AmpC-EC (Class C) β-lactamase (UniProt P05364); assay: In vitro enzymatic assay (Nitrocefin); format: biochemical; conditions: Nitrocefin 0.1 mM, 1 × PBS pH 7.4, 0.1 mg/mL BSA, read-out: IC50, inhibitory activity on β-lactamase
# Experimental: as §1, §2, §3, §4, §5, §6, §7
# [7] = target: KPC (Class A) β-lactamase (Klebsiella pneumoniae, UniProt Q9F663); assay: In vitro enzymatic assay (Nitrocefin); format: biochemical
# Experimental: as §1, §2, §3, §4, §5, §6, §7
# [8] = tested on: Klebsiella pneumoniae (ATCC BAA-1705, KPC-2); assay: Mouse lung infection model; format: in vivo, CD-1 mice; conditions: ip, combined with ceftazidime
# Experimental: Female CD-1 mice of about 7 weeks old, weighing 26-28 g; cyclophosphamide was injected at a dose of 150 mg/kg 4 days before infection, and further 100 mg/kg 1 day before infection; the bacteria infected was Klebsiella pneumoniae (ATCC BAA-1705, KPC-2). Compound 1 and the reference compound OP-0595 were synthesized in the laboratory.
# Female CD-1 mice were infected with Klebsiella pneumoniae by intranasal instillation. Each mouse was instilled with 50 μL bacterial fluid through nasal cavity at a dose of 3.14E+07 CFU per mouse. At 2 h, 4 h, 6 h and 8 h after infection, each group of mice were treated with a corresponding compound or combined compounds by intraperitoneal injection.
# At 10 h after infection, the mice in group 1, 2 and 3 were euthanized, and the lung was taken out and placed in a 50 mL centrifuge tube containing 10 mL sterile normal saline, the tube was placed on wet ice and transferred to BSL-2 laboratory for CFU counting. At 20 h after infection, the mice in group 4, 5 and 6 were euthanized and treated according to the same procedure.
# The lungs were ground with an IKA T10 homogenizer (the maximum speed was 20S, repeated once). […] After 24 hours, the plate was taken out and the number of single colonies grown in each homogenate with a gradient dilution, and the amount of bacterial load in the lung of each mouse was calculated.
# [9] = tested on: K. pneumoniae ATCC BAA-1898 (KPC); assay: In vitro synergistic inhibitory concentration (SIC) assay; format: cell-based; conditions: Klebsiella pneumoniae, ATCCBAA1898, 37° C. 20 hours, read-out: minimum inhibitory concentration, used alone
# Experimental: (§8) 2) 30 μL dimethyl sulfoxide was added to columns 2-12 of the 96-V well plate. 60 μL prepared ceftazidime was added to column 1. 30 μL ceftazidime was transferred from column 1 to column 2 and mixed with a pipette. The same operation was continued until column 11, and 30 μL of the mixture in column 11 was discarded. This was the compound mother plate.
# (§9) Mix the liquid in the mother plate with a pipette.
# (§10) 4) One day before the experiment, the bacterial glycerol stock which was stored in a −80° C. refrigerator was streaked on a trypticase soy agar plate (TSA), and the plate was incubated in a 37° C. incubator overnight. On the day of the experiment, the monoclonal bacterial was suspended in physiological saline and the turbidity of which was adjusted to 0.5 McFarland standard, corresponding to 1×10^8 CFU/ml. This suspension was diluted 100-fold to 1×10^6 CFU/mL with caton-adjusted Mueller-Hnton broth (CAMHB), which was used as an inoculation fluid.
# (§11) 5) a 96-U plate was used as a test plate. Firstly, adding 98 μL CAMHB to each well of the test plate and transferring 2 μL solution in the mother plate to the test plate. 100 μL inoculation fluid was added to each well of the test plate.
# (§12) 6) The test plate was incubated at 37° C. for 20 hours.
# (§13) The above-mentioned method was also used to determine the antibacterial activity of the test compound or the antibiotic when used alone.
# [10] = tested on: K. pneumoniae ATCC BAA-2470 (NDM-1); assay: as above; format: cell-based; conditions: Klebsiella pneumoniae, ATCCBAA2470, 37° C. 20 hours, read-out: minimum inhibitory concentration, used alone
# Experimental: as §8, §9, §10, §11, §12, §13
# [11] = tested on: K. pneumoniae ATCC BAA-1705 (KPC); assay: as above; format: cell-based; conditions: Klebsiella pneumoniae, ATCCBAA1705, 37° C. 20 hours, read-out: minimum inhibitory concentration, used alone
# Experimental: as §8, §9, §10, §11, §12, §13
# [12] = tested on: K. pneumoniae ATCC 51503 (TEM-10/12); assay: as above; format: cell-based; conditions: Klebsiella pneumoniae, ATCC51503, 37° C. 20 hours, read-out: minimum inhibitory concentration, used alone
# Experimental: as §8, §9, §10, §11, §12, §13
# [13] = tested on: K. pneumoniae ATCC BAA-1144 (AmpC); assay: as above; format: cell-based; conditions: Klebsiella pneumoniae, ATCCBAA1144, 37° C. 20 hours, read-out: minimum inhibitory concentration, used alone
# Experimental: as §8, §9, §10, §11, §12, §13
# Sequence of OXA-9 (Class D) β-lactamase (P0A3M3 25-274): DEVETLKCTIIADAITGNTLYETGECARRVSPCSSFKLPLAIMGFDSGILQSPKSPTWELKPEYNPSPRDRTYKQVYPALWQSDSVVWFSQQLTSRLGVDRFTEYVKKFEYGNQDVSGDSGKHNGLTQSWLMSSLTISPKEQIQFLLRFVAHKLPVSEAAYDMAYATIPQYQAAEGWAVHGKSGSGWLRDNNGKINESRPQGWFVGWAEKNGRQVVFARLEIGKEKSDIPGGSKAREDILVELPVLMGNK
# Sequence of AmpC-PA (Class C) β-lactamase (P24735 27-397): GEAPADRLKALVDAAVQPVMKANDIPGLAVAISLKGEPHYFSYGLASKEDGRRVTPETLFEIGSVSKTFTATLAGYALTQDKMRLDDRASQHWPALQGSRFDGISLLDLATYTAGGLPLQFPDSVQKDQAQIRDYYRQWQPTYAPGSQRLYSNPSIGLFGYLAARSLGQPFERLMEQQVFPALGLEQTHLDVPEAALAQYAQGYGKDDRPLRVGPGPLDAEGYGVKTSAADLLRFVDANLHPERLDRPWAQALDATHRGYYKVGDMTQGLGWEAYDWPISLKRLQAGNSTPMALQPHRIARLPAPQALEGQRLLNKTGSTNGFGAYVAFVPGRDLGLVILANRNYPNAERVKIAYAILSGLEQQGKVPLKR
# Sequence of CTX-M-44 (Class C) β-lactamase (Q47066 30-291): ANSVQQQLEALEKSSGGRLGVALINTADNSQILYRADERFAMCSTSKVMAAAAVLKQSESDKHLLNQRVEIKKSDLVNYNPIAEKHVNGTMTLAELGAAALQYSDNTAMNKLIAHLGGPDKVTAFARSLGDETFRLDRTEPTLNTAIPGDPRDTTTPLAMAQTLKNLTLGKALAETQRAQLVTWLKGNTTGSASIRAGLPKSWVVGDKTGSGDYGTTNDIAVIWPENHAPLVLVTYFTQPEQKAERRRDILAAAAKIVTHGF
# Sequence of KPC (Class A) β-lactamase (Q9F663 25-293 limits assumed): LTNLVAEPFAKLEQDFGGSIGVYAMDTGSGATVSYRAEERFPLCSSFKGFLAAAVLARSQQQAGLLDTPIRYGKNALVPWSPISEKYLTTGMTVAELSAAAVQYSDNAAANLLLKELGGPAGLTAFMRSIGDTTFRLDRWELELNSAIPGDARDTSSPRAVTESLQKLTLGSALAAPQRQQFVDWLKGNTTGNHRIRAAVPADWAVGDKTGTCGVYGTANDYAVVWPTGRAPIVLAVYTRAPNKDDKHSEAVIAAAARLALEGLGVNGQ
# Sequence of OXA-2 (Class D) β-lactamase (P0A1V9 22-275): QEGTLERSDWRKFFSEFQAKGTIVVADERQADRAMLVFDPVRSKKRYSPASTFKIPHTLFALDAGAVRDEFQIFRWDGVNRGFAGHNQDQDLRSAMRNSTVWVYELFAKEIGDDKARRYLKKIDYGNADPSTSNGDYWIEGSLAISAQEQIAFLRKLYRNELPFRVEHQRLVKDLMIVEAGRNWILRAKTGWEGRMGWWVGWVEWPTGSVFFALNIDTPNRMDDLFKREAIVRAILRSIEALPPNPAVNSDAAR
# Sequence of TEM-1 (Class A) β-lactamase (P62593 24-286 limits assumed): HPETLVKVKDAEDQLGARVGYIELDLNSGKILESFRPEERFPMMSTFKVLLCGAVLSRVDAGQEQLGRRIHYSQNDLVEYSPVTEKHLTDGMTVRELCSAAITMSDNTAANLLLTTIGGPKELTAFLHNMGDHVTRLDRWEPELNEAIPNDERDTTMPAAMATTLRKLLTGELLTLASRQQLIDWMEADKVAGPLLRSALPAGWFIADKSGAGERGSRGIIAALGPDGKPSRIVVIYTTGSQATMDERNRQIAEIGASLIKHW
compound,measurement,setting,value
N=C(N)NOCCONC(=O)[C@@H]1CC[C@@H]2CN1C(=O)N2OS(=O)(=O)O [Compound 1],IC50,[1],0.0389 µM
same,IC50,[2],0.0319 µM
same,IC50,[3],0.0986 µM
same,IC50,[4],5 µM
same,IC50,[5],1.55 µM
same,IC50,[6],0.0202 µM
same,IC50,[7],0.0431 µM
same,reduction of the amount of bacterial load in the lung compared with the reference group of OP-0595,"[8]; female CD-1 mice, K. pneumoniae ATCC BAA-1705 (KPC-2), 25/6.25 mpk and 50/12.5 mpk",0.5-1.5 logs
same,potency compared with reference compound OP-0595,[8]; mouse lung infection model,significantly more potent
same,MIC,[9],> 128 µg/mL
same,MIC,[10],> 128 µg/mL
same,MIC,[11],128 µg/mL
same,MIC,[12],> 128 µg/mL
same,MIC,[13],128 µg/mL
